This note sets out measurements from patent publication US20260207629A1, “COMPOSITION FOR IMPROVING SKIN COMPRISING CARNITINESALICYLATE AS AN ACTIVE INGREDIENT” (LG H&H CO., LTD., priority 2022, published 2026).

Each structure is given as a SMILES string.

What is called MIC is the lowest concentration found to suppress growth.

Test [1] concerns C. acnes ribotype 5 (strain HL043PA1). The experiment in a line: Minimum inhibitory concentration (MIC) against C. acnes. The format is cell-based. To be noted: Cutibacterium acnes; C. acnes ribotype 5 strain HL043PA1, 72 h incubation, OD600, growth inhibited by more than 90%. The method, then: The minimum inhibitory concentrations (MICs) of CA-SA and magnolol against C. acnes were measured and compared with an antibiotic (clindamycin) and non-antibiotic agents (benzoyl peroxide and salicylic acid).
C. acnes ribotype 5 (strain HL043PA1) was cultured in a reinforced Clostridial broth medium (BD Diagnostics, Franklin Lakes, NJ) in an anaerobic environment (37° C., 175 rpm). Thereafter, each sample was dissolved in water or dimethyl sulfoxide (DMSO) and serially diluted two-fold, and 7.5 μL of the resulting solution was added to 142.5 μL of a bacterial suspension containing 7.5×10^5 CFU/mL, and incubated for 72 h. Thereafter, turbidity (OD600) was measured (Synergy 2 Multi-Mode Microplate Reader (BioTek Instrument, Winooski, VT)) to determine the MIC that inhibited bacterial growth by more than 90%.

A further test has as its system SZ95 cells. The experiment in a line: Lipid production inhibition in testosterone-treated SZ95 cells (Nile red). The format is cell-based. To be noted: magnolol 0.5 μg/ml, 48 h, vs positive control. The method, then:
It was evaluated whether CA-SA and/or magnolol could control sebum secretion by inhibiting lipid production.
SZ95 cells, which are […] sebaceous cells, were cultured and maintained in a humidified atmosphere containing 5% CO2 and 95% air at 37° C. The medium used was Dulbecco's Modified Eagle Medium (DMEM)/Ham's F12 medium (Gibco) supplemented with 10% fetal bovine serum (FBS) and 5 ng/ml recombinant human epidermal growth factor (Invitrogen; Thermo Fisher, Waltham MA). After performing sub-confluent culture, cells were harvested with 0.05% trypsin-ethylenediaminetetraacetic acid (EDTA) (Gibco) and passaged, and cells obtained from the second passage were used.
The cells were seeded at 1×10^5 cells per well in a 24-well plate (Greiner, Frickenhausen, Germany) and cultured at 37° C. and 5% CO2 for 24 h. Thereafter, the cells were treated with 2×10^−8 M testosterone for 24 h to stimulate lipid production. […]
The well plate was covered with aluminum foil to block light, and fluorescence was measured at Ex/Em=550/580 nm using a microplate reader (BioTek Instruments, Inc.). The percentage value of the absolute fluorescence unit compared to the negative control group was used as the result value. Thereafter, the reduction value of the sample treatment group compared to the positive control group was calculated and is shown in Table 2.

The subject of the next test is MMP-1. Put plainly: Inhibition of MMP-1 expression induced by C. acnes lysate in HaCaT cells (ELISA). The settings on record: magnolol 4 μg/ml, 4 h pretreatment, C. acnes lysate 30 min, vs positive control. It counts as cell-based, human. The method, then: (§1) A human epidermal keratinocyte cell line (HaCaT cells) was sub-cultured at 37° C. in a humidified atmosphere containing 5% CO2 and 95% air. The medium used was DMEM containing 10% FBS (Gibco; Thermo Fisher, Waltham MA), penicillin (100 U/ml, Gibco), and streptomycin ([…], Gibco). Separately, the acne pathogen C. acnes ribotype 5 (Strain HL043PA1) (1.36×10^9 CFU/ml, OD=1.7) was cultured to prepare a C. acnes lysate. The C. acnes lysate was used to induce the expression of MMP-1 and VEGF in HaCaT cells.
(§2) Thereafter, the C. acnes lysate and the medium were mixed at a mass ratio of 3:7, and the resulting mixture was applied to HaCaT cells for 30 minutes. The supernatant was collected, and the concentrations of MMP-1 and VEGF were measured by enzyme-linked immunosorbent assay (ELISA) (R&D Systems Inc., Minneapolis, MN) using the manufacturer's protocol. […] The experimental group treated only with the C. acnes lysate was set as the positive control group, and the reduction value of the sample treatment group compared to the positive control group was calculated and is shown in Table 3. […]
(§3) Colby Equation: E=(A+B)−(A*B/100); E: predicted value; A: efficacy of active ingredient A; B: efficacy of active ingredient B. When the actual measurement value is greater than the predicted value, it is determined that there is a synergistic effect.
Background: In an ELISA, binding on a coated surface is turned into a signal by an enzyme label.

The test system of the next test is VEGF. The experiment in a line: Inhibition of VEGF expression induced by C. acnes lysate in HaCaT cells (ELISA). The format is cell-based, human. The settings on record: magnolol 4 μg/ml, 4 h pretreatment, C. acnes lysate 30 min, vs positive control. As to the method:
as §1, §2, §3

Another test deals with stratum corneum (SC). The experiment in a line: Stratum corneum softening, tape stripping test on volunteer's skin. It counts as in vivo, human. To be noted: magnolol 0.2 mg/ml, 50 μl solution on skin for 3 h, SC protein increase relative to control. As to the method:
To evaluate the softening efficacy on the stratum corneum (SC) of CA-SA and magnolol, a tape stripping test was performed on the SC.
After marking an application site on a volunteer's skin in advance, 50 μl of a solution including CA-SA and/or magnolol at the concentration shown in Table 4 was applied, and after three hours the skin surface was wiped to remove any remaining substances. A solution that included none of the evaluated substances was used as a control. A D-squame adhesive tape disk (CuDerm, Dallas, TX) was attached to the test site, and a cylindrical weight was used to apply a pressure of 150 g/cm^2 for three seconds, and then the pressure was removed and the tape was removed from the skin. Three tape strips were obtained from each marked site.
After collecting the tape strips in a polystyrene petri dish (Thermo Fisher), in order to perform keratinolysis quantification, 1 ml of 1 M NaOH was added to each petri dish and the dish was shaken for two hours. Thereafter, 75 μl of the solution was transferred to three wells (96-well plate, Corning), and each was neutralized with an equivalent volume of 1 M HCl. […] After 15 minutes, the optical density at 595 nm (OD 595 nm) was measured using an empty well as a correction value, and the amount of SC protein was quantified using a γ-globulin standard (Bio-Rad). […]

The subject of test [2] is erythema induced by 1% sodium dodecyl sulfate (SDS). Put plainly: Skin erythema recovery after SDS erythema induction (Mexameter erythema index). It counts as in vivo, human. The settings on record: emulsion with magnolol 0.02% by weight, twice a day for 12 days, forearm, vs vehicle application group. As to the method:
To evaluate the erythema recovery efficacy, an erythema index was evaluated before erythema induction, after erythema induction, and 12 days after product use in nine volunteers aged 25 to 35 years. Erythema was induced by applying 1% sodium dodecyl sulfate (SDS) dilution to the forearm for 24 hours, and an emulsion comprising CA-SA 5% by weight of, an emulsion comprising magnolol 0.02% by weight of, an emulsion comprising 5% CA-SA and 0.02% magnolol by weight, and an emulsion containing neither CA-SA nor magnolol (vehicle) was repeatedly applied to the same area twice a day, in the morning and evening, for 12 days.
The erythema index was measured using a Mexameter (MX 18, Courage+Khazaka electronic GmbH, Germany). The erythema index recovery rate was calculated using the following formula, and the effect was compared in terms of the percentage value increase in the erythema index recovery rate of the emulsion application group including each sample relative to the erythema index recovery rate of the vehicle application group (relative recovery rate).
In order to confirm the synergistic effect of CA-SA and magnolol, the predicted values (Colby values) and the actual measurement values were compared using the Colby Equation in the same manner as in Experimental Example 3, and the results are shown in Table 5.

On to `O=C(OOC(=O)c1ccccc1)c1ccccc1` [Benzoyl peroxide, benzoyl peroxide], for which the minimal inhibitory concentration (MIC) in test [1] stood at 2500 µg/mL.

Consider `CCC[C@@H]1C[C@@H](C(=O)N[C@@H]([C@H]2O[C@H](SC)[C@H](O)[C@@H](O)[C@H]2O)[C@H](C)Cl)N(C)C1` [Clindamycin, clindamycin], for which the minimum inhibitory concentration (MIC) in test [1] came out at 156 µg/mL.

Regarding `C=CCc1ccc(O)c(-c2cc(CC=C)ccc2O)c1` [Magnolol, magnolol], the “Reduction value (lipid production)” value with SZ95 cells amounted to 3.8%. Besides, the MMP-1 reduction value with MMP-1 is on record as 33.6%. Moreover, the VEGF reduction value with VEGF was 21.2%. Moreover, the SC exfoliation rate in the test on stratum corneum (SC) is −22.3%. Also, in test [2], the “Relative recovery rate (erythema index)” value amounted to 16.2%.

Take `O=C(O)c1ccccc1O` [Salicylic acid, salicylic acid]: in test [1], the MIC was in the range of 4000 to 8000 µg/mL.
